Data set [1] addresses Protein smoothened (Mus musculus, UniProt P56726). The data set is described as follows: Antagonist activity at Smo receptor in mouse NIH/3T3 cells harboring GRE-Luc assessed as inhibition of SAG-induced Hh signaling pathway preincubated with cells followed by SAG addition measured after 48 hrs by luciferase reporter gene assay. The format is cell-based. (A reporter such as luciferase makes a cellular process visible.)

In the next data set the test system is HEK293. The data set is described as follows: Inhibition of Wnt pathway in HEK293 cells harbouring TCF-luciferase cocultured with LWnt3A cells by Topflash reporter gene assay. It is filed as cell-based. Particulars: Homo sapiens.
Data set [2] concerns the target Protein smoothened (Homo sapiens, UniProt Q99835). Put plainly: Displacement of BODIPY-Cyclopamine from human HA-tagged Smo receptor expressed in human U2OS cells at 1 to 10000 nM incubated for 2 hrs by DAPI staining based fluorescence microscopic method. The format is cell-based.
A further data set relates to Medulloblastoma cell. Put plainly: Antiproliferative activity against mouse Ptch+/- medulloblastoma cells assessed as inhibition of cell growth incubated for 36 hrs by CCK-8 assay. The format is functional, cell-based. (In general: Formazan colour is commonly taken as a measure of viable cells.)
A further data set has as its system U-251. The data set is described as follows: Cytotoxicity activity human U251 cells assessed as reduction of cell viability upto 1000 nM incubated for 48 hrs by CCK-8 assay. The format is cell-based. To be noted: u-251, 48 h.
Data set [3] concerns Protein smoothened (Homo sapiens), Q99835 [D473H]. The data set is described as follows: Antagonist activity at Smo D473H mutant receptor in mouse NIH/3T3 cells assessed as inhibition of Gli1 mRNA expression incubated for 48 hrs by qRT-PCR analysis. The format is cell-based. (Quantitative PCR measures a nucleic acid by following its amplification.)
A short description of data set [4]: Half life in rat liver microsomes at 1 uM. It is filed as ADME, Microsome.
The next data set concerns the target CYP3A4 (Homo sapiens, UniProt P08684). Put plainly: Inhibition of CYP3A4 (unknown origin) at 10 uM relative to control. It is filed as ADME.
The target in the next data set is CYP2C9 (Homo sapiens, UniProt P11712). The data set is described as follows: Inhibition of CYP2C9 (unknown origin) at 10 uM relative to control. It is filed as ADME.
Data set [5] in a line: Intrinsic clearance in rat liver microsomes at 1 uM. It is filed as ADME, Microsome. Particulars: read-out: CLH.
The nature of data set [6]: Intrinsic clearance in human liver microsomes at 1 uM. The format is ADME, Microsome. Particulars: read-out: CLH.
Data set [7] concerns the target Voltage-gated inwardly rectifying potassium channel KCNH2 (Homo sapiens, UniProt Q12809). Put plainly: Inhibition of human ERG by patch clamp method.
The nature of data set [8]: Efflux ratio of apparent permeability in human Caco2 cells. It is filed as ADME, cell-based. Particulars: Caco-2.
A short description of data set [9]: Apparent permeability from apical to basolateral side in human Caco2 cells. The format is ADME, cell-based. To be noted: Caco-2.
For data set [10], the target named is Protein smoothened (Mus musculus) (UniProt P56726). Put plainly: Antagonist activity at Smo receptor in mouse NIH/3T3 cells assessed as inhibition of Gli1 mRNA expression incubated for 48 hrs by qRT-PCR analysis. The format is cell-based.
The target in the next data set is T1, CYP1A2 (Homo sapiens, UniProt P05177).
T1 sequence (P05177 whole entry): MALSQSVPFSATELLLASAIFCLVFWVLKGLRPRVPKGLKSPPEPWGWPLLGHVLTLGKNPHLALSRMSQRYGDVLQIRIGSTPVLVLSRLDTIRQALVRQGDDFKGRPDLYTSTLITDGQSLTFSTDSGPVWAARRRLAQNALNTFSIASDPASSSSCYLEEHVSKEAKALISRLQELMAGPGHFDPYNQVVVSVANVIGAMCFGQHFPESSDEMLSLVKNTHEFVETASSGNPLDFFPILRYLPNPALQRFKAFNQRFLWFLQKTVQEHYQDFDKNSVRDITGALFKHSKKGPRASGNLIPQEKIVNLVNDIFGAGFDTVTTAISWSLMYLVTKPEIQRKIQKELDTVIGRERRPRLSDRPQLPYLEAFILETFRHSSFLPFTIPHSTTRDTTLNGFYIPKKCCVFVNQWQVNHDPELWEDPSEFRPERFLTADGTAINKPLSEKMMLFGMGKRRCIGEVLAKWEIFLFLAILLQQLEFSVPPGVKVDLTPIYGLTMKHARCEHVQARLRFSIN
The data set is described as follows: Inhibition of CYP1A2 (unknown origin) at 10 uM relative to control. The format is ADME.

The target in the next data set is CYP2D6 (Homo sapiens, UniProt P10635). Put plainly: Inhibition of CYP2D6 (unknown origin) at 10 uM relative to control. It is filed as ADME.
A further data set deals with CYP2C19 (Homo sapiens, UniProt P33261). The data set is described as follows: Inhibition of CYP2C19 (unknown origin) at 10 uM relative to control. It is filed as ADME.
Data set [11] can be described thus: Half life in human liver microsomes at 1 uM. It is filed as ADME, Microsome.

The source made the active and inactive calls. No cut-off for these calls is given here. A value given as a limit tells only on which side of the number the result lay.

Sequence of Protein smoothened (Mus musculus, UniProt P56726) (P56726 whole entry): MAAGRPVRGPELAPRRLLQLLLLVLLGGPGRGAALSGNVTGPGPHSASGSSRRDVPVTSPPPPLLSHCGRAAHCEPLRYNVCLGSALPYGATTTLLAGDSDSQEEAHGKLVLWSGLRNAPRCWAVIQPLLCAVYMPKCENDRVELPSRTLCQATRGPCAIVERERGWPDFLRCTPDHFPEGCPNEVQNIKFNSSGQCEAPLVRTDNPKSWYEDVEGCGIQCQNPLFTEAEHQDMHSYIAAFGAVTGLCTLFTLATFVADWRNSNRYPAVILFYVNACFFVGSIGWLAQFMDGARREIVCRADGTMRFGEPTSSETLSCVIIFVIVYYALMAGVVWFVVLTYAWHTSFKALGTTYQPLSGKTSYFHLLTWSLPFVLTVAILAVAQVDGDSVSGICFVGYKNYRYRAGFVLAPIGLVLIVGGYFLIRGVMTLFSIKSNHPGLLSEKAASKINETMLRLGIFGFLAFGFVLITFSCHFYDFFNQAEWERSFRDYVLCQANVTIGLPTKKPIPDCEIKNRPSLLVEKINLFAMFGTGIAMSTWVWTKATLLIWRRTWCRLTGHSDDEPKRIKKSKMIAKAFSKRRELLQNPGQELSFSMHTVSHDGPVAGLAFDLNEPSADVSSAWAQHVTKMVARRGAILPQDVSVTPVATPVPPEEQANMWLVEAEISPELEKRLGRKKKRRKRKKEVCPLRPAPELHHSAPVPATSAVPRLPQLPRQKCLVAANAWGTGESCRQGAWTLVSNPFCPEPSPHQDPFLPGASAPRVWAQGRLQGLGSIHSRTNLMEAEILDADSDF
Sequence of Protein smoothened (Homo sapiens), Q99835 [D473H] (Q99835 whole entry D473H): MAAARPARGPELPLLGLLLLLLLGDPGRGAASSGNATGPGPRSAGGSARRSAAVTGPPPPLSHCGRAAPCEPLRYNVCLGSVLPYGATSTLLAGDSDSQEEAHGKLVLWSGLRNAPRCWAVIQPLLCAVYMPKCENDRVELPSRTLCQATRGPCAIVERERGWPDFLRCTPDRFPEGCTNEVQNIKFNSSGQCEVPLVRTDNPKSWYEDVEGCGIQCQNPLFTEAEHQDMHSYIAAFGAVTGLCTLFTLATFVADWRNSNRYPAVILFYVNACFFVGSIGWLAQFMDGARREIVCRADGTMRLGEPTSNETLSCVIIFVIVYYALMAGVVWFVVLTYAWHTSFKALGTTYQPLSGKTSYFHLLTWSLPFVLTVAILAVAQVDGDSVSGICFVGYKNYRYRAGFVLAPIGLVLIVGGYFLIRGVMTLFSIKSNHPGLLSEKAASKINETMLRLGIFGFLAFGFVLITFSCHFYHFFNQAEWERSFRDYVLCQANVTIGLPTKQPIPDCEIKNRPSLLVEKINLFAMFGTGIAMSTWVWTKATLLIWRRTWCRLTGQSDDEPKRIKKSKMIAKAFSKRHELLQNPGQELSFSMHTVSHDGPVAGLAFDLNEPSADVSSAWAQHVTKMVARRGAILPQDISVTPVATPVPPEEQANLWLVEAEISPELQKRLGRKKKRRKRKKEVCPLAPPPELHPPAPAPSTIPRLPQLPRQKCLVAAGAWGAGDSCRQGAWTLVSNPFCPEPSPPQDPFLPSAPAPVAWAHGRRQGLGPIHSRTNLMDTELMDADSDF
Sequence of Protein smoothened (Homo sapiens, UniProt Q99835) (Q99835 whole entry): as the sequence (Q99835 whole entry D473H) above, with H473D counted along it
Sequence of CYP3A4 (P08684 whole entry): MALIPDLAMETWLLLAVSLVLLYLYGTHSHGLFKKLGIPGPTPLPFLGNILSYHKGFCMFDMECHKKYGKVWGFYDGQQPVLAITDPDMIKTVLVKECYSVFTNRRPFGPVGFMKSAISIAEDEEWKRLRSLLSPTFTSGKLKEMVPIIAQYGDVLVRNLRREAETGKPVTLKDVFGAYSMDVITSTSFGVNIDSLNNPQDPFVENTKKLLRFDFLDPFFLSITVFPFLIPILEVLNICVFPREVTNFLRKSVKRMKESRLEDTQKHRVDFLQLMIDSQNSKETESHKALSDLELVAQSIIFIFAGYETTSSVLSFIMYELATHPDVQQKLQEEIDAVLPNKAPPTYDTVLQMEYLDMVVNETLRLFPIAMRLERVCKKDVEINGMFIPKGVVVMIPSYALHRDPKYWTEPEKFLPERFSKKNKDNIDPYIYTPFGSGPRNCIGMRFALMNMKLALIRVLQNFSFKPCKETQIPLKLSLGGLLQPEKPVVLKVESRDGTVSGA
Sequence of CYP2C9 (P11712 whole entry): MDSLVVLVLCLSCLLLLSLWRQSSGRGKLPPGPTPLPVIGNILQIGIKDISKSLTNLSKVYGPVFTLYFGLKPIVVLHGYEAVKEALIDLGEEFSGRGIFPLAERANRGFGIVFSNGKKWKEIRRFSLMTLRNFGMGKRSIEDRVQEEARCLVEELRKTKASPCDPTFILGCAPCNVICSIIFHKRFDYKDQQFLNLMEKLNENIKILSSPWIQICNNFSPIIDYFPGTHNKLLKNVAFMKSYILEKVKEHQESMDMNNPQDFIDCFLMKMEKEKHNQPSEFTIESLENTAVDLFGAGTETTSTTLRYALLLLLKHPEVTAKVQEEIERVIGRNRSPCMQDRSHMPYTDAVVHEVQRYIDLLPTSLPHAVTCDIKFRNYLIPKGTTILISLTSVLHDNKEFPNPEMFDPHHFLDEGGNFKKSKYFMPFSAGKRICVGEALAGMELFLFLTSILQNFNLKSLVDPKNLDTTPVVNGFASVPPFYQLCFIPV
Sequence of CYP2D6 (P10635 whole entry): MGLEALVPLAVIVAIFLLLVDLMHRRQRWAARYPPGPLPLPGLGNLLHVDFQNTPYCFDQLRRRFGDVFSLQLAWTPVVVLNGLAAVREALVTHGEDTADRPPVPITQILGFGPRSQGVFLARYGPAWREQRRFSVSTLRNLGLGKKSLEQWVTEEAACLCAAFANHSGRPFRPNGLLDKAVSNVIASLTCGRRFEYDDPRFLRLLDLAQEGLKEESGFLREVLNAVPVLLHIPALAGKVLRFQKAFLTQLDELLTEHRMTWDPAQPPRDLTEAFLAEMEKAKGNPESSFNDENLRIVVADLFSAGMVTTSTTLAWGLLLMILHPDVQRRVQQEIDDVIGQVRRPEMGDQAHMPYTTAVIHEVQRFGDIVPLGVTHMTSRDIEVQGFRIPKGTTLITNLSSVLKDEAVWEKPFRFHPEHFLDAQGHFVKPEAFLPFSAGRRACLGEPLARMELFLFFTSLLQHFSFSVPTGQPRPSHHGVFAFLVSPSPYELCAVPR
Sequence of Protein smoothened (Mus musculus) (P56726 whole entry): as the sequence (P56726 whole entry) above
Sequence of CYP2C19 (P33261 whole entry): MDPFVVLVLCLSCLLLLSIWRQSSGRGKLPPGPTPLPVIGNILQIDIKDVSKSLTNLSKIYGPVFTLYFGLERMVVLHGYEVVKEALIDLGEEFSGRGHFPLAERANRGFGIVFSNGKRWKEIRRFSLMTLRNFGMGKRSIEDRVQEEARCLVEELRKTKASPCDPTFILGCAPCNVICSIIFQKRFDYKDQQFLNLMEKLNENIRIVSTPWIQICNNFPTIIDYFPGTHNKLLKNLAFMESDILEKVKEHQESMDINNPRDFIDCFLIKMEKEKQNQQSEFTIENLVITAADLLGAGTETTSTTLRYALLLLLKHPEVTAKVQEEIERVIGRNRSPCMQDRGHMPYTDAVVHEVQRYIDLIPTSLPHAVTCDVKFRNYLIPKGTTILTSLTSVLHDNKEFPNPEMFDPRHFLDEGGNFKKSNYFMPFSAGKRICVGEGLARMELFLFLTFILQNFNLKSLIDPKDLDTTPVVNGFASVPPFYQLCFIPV
Sequence of Voltage-gated inwardly rectifying potassium channel KCNH2 (Q12809 whole entry): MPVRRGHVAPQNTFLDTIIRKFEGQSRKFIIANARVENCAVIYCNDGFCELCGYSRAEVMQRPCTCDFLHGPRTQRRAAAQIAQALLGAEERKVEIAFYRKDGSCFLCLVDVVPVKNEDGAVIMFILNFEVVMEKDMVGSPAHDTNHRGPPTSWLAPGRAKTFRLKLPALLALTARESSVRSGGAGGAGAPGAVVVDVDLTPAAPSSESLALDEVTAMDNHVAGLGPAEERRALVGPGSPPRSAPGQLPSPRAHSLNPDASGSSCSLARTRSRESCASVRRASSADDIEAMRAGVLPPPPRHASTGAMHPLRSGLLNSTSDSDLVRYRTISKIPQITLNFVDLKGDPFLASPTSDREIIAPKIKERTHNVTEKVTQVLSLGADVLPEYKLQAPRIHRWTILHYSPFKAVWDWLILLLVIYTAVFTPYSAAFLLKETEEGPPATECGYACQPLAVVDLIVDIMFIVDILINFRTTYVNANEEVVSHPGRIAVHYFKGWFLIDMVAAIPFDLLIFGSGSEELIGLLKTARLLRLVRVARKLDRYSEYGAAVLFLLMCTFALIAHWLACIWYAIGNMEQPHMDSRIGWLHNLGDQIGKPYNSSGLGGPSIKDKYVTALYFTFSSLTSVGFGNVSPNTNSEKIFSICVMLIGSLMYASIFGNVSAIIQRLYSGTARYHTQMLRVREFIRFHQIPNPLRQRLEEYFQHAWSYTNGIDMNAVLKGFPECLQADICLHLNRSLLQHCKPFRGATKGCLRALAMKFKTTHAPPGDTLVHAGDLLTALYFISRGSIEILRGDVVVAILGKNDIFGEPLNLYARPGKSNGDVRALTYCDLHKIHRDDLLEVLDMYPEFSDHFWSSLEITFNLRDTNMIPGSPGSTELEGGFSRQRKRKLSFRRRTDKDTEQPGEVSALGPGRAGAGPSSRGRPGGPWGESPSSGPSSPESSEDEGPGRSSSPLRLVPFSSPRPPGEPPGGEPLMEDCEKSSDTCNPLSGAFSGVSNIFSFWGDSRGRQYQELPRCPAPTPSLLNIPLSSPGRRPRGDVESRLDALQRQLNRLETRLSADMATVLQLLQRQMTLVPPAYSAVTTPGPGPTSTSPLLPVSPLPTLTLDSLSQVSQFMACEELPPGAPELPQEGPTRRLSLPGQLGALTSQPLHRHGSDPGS

Regarding `CC1CCCCC1NC(=O)C1CCN(c2nnc(-n3nccc3CNc3cccnc3)s2)CC1` (configuration not stated), the concentration for half-maximal inhibition (IC50) on Protein smoothened [1] stood at 69 nM. Moreover, in the data set with HEK293, the inhibition result is “Active”.

Take `Cc1cnc(NCc2ccnn2-c2nnc(N3CCC(C(=O)NC4CCCCC4C)CC3)s2)cn1` (configuration not stated): the half-maximal inhibitory concentration (IC50) on Protein smoothened [1] is 410 nM. The inhibition entry in the data set with HEK293 is “Active”.

Consider `Cc1ccc(NCc2ccnn2-c2nnc(N3CCC(C(=O)NC4CCCCC4C)CC3)s2)nc1` (racemic), for which the IC50 came out at 7.1 nM at Protein smoothened [1] and 3.9 nM at Protein smoothened [2]. In addition, the inhibition result in the data set on HEK293 was “Active”.

`Cc1ccc(NCc2ccnn2-c2nnc(N3CCC(C(=O)Nc4ncccc4C)CC3)s2)nc1`: the IC50 on Protein smoothened [1] came to 280 nM. Further, the inhibition result with HEK293 is “Active”.

For the molecule `CN(C(=O)c1ccc(F)cc1C(F)(F)F)C1CCN(c2nnc(-c3ccnn3C)s2)CC1`, at Protein smoothened [1], the IC50 is greater than 10000 nM.

Take `Cc1ccc(OCc2ccnn2-c2nnc(N3CCC(C(=O)NC4CCCCC4C)CC3)s2)nc1` (configuration not stated): the concentration for half-maximal inhibition (IC50) at Protein smoothened [1] was found to be 42 nM. In the data set on HEK293, the inhibition entry was “Active”.

For the molecule `Cc1ccc(NCc2ccnn2-c2nnc(N3CCC(C(=O)Nc4cnccc4C)CC3)s2)nc1`, on Protein smoothened [1], the IC50 is 550 nM. Moreover, in the data set on HEK293, the inhibition result is “Active”.

For the molecule `Cc1cc(C)n(-c2nnc(N3CCC(C(=O)NC4CCCCC4C)CC3)s2)n1` (configuration not stated), on Protein smoothened [1], the half-maximal inhibitory concentration (IC50) is greater than 10000 nM.

Turning to `Cc1ccc(NCc2ccccc2-c2nnc(N3CCC(C(=O)NC4CCCCC4C)CC3)s2)nc1` (configuration not stated), the concentration for half-maximal inhibition (IC50) at Protein smoothened [1] was determined as 290 nM. For the same molecule, the inhibition result in the data set with HEK293 is “Active”.

Take `CS(=O)(=O)c1ccc(C(=O)Nc2ccc(Cl)c(-c3ccccn3)c2)c(Cl)c1` [VISMODEGIB]: the IC50 with Medulloblastoma cell is 4.7 nM. Further, the Activity entry in the data set on U-251 is recorded as “Non-Toxic”. Besides, in data set [3], the inhibition result was “inactive”.

On to `Cc1ccc(NCc2ccnn2-c2nnc(N3CCC(C(=O)N[C@H]4CCCC[C@H]4C)CC3)s2)nc1`, for which the IC50 on Protein smoothened [1] is 7.1 nM; in [7] it was greater than 30000 nM; with Medulloblastoma cell it was 0.5 nM. Further, the values for the half-life at 1 µM in data set [4] and in data set [11] were 78 s and 38.4 s, respectively. The inhibition at 10 µM at CYP3A4 was 72%; against CYP2C9, 26%; against CYP1A2, -4%; on CYP2D6, 59%; on CYP2C19, 7.1%. The inhibition result (in the data set with HEK293; in [10]; in data set [3]) was “Active” throughout. Moreover, the CLint scaled at 1 µM is 2000 mL/min/kg in data set [5] and 2700 mL/min/kg in [6]. For the same molecule, the efflux ratio in data set [8] was found to be 1.03. The Papp A→B in data set [9] was determined as 23 ×10⁻⁶ cm/s. In the data set on U-251, the Activity result is “Non-Toxic”.

For `Cc1ccc(NCc2ccnn2-c2nnc(N3CCC(C(=O)Nc4ccccc4C)CC3)s2)nc1`, the 50% inhibitory concentration (IC50) at Protein smoothened [1] worked out at 140 nM. Also, the inhibition result with HEK293 is “Active”.

As for `CC1CCCCC1NC(=O)C1CCN(c2nnc(-c3ccnn3C)s2)CC1` (configuration not stated), the half-inhibitory concentration (IC50) on Protein smoothened [1] was greater than 10000 nM.

As to `CC1CCCCC1NC(=O)C1CCN(c2nnc(-n3nccc3CO)s2)CC1` (configuration not stated), the IC50 at Protein smoothened [1] is greater than 10000 nM.

As for `Cc1ccc(CCc2ccnn2-c2nnc(N3CCC(C(=O)NC4CCCCC4C)CC3)s2)nc1` (configuration not stated), the IC50 on Protein smoothened [1] was 57 nM. In addition, the inhibition entry with HEK293 was “Active”.

As for `CC1CCCCC1NC(=O)C1CCN(c2nnc(-n3nccc3CNc3ccccn3)s2)CC1` (configuration not stated), the concentration for half-maximal inhibition (IC50) at Protein smoothened [1] was determined as 18 nM. Also, the inhibition entry with HEK293 was “Active”.

Take `Cc1ccc(NCc2ccnn2-c2nnc(N3CCC(C(=O)NC4CCCCC4C)CC3)s2)cc1` (configuration not stated): the IC50 on Protein smoothened [1] is 46 nM; on Protein smoothened [2] it was 18 nM. Also, in the data set with HEK293, the inhibition entry was “Active”.

As for `Cc1ccc(NCc2ccnn2-c2nnc(N3CCC(C(=O)Nc4ccncc4C)CC3)s2)nc1`, the IC50 on Protein smoothened [1] was 220 nM. Also, the inhibition entry in the data set with HEK293 was “Active”.

Regarding `Cc1cnc(NCc2ccnn2-c2nnc(N3CCC(C(=O)NC4CCCCC4C)CC3)s2)nc1` (configuration not stated), the concentration for half-maximal inhibition (IC50) on Protein smoothened [1] is 180 nM. In addition, the inhibition result in the data set on HEK293 is “Active”.

As to `Cc1ccc(NCc2ccnn2-c2nnc(N3CCC(C(=O)Nc4cccnc4C)CC3)s2)nc1`, the IC50 on Protein smoothened [1] was found to be 460 nM. The inhibition result in the data set with HEK293 was “Active”.

For the molecule `C[C@@H]1CN(c2nnc(Cc3ccccc3)s2)CCN1c1cnc(C(C)(C)O)cn1`, the IC50 on Protein smoothened [1] was greater than 10000 nM.

Turning to `Cc1ccc(NCc2ccnn2-c2nnc(N3CCC(C(=O)NC4CCCCC4C)CC3)s2)nn1` (configuration not stated), the half-inhibitory concentration (IC50) on Protein smoothened [1] is 81 nM. Moreover, in the data set with HEK293, the inhibition entry is “Active”.

Take `CC(O)c1ccnn1-c1nnc(N2CCC(C(=O)NC3CCCCC3C)CC2)s1` (configuration not stated): at Protein smoothened [1], the IC50 came out at 3700 nM. Besides, the inhibition result with HEK293 was “Active”.

`Cc1ccc(NCc2c(-c3nnc(N4CCC(C(=O)NC5CCCCC5C)CC4)s3)cnn2C)nc1` (configuration not stated): at Protein smoothened [1], the IC50 was 1800 nM. Besides, the inhibition entry in the data set with HEK293 was “Active”.

As to `Cc1ccc(NCc2ccnn2-c2nnc(N3CCC(C(=O)N[C@@H]4CCCC[C@@H]4C)CC3)s2)nc1`, the IC50 at Protein smoothened [1] was 8.4 nM. Moreover, the inhibition result in the data set with HEK293 was “Active”.

`CC1CCCCC1NC(=O)C1CCN(c2nnc(-n3cccn3)s2)CC1` (configuration not stated): the IC50 at Protein smoothened [1] was greater than 10000 nM.

In the case of `Cc1ccc(NCc2ccnn2-c2nnc(N3CCC(C(=O)NC4CCCCC4C)CC3)s2)cn1` (configuration not stated), at Protein smoothened [1], the half-maximal inhibitory concentration (IC50) was 51 nM. Moreover, the inhibition entry in the data set on HEK293 was “Active”.

The term IC50 denotes the concentration needed to halve the response being measured. The inhibition is the relative decrease from the control value, in per cent. For orientation: half-life means how long it takes for the measured level to halve. Higher therefore signals slow loss. Broadly, the efflux ratio is a quotient of directional permeabilities that is used to spot active efflux. What is called Papp A→B is how fast a substance crosses the layer from the apical side.

These data come from ChEMBL document CHEMBL4393662, “Structural optimization on a virtual screening hit of smoothened receptor” (Eur J Med Chem, 2019).
